Results published in US7273848B2, “Apolipoprotein A-I agonists and their use to treat dyslipidemic disorders” (priority 1997, dated 2007).
Read-outs that look alike come from different tables or passages of the source. Non-standard residues stand in square brackets, D forms with d. Residues, ends and D or L forms follow the SMILES beside them. No end group written: not given here. 1Nal = N[C@@H](Cc1cccc2ccccc12)C(=O)O; Aib = CC(C)(N)C(=O)O

Legend:
[1] = Circular dichroism helicity determination; type: physicochemical; conditions: for He (%) TFE: 5 μM peptide, 90% vol TFE; for He (%) TFE / He (%) SUVs: 37° C.; for He (%) free: unbound peptide 5 μM in 5 mM phosphate buffer, pH 7.4, 37° C.; for He (%) SUVs: peptide-SUV complexes (20:1 EPC:Chol., Ri=30 and Ri=50)
How it was run: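 Far-UV CD (190–260 nm) at 37° C on 5 μM peptide in 5 mM phosphate pH 7.4, free, with EPC:Chol 20:1 SUVs (Ri 30 or 50), lysophosphatidylcholine micelles (Ri 100) or 90% TFE. Spectra converted to molar ellipticity per residue; helicity from 222 nm ellipticity or CONTIN fitting to reference spectra, ±5%.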

[2] = biological target: T1, LCAT (purified from human plasma) (Homo sapiens, UniProt P04180); experiment: LCAT activation assay; type: biochemical
T1 construct: from tissue; host or cells: human plasma
T1 sequence (P04180 25-440): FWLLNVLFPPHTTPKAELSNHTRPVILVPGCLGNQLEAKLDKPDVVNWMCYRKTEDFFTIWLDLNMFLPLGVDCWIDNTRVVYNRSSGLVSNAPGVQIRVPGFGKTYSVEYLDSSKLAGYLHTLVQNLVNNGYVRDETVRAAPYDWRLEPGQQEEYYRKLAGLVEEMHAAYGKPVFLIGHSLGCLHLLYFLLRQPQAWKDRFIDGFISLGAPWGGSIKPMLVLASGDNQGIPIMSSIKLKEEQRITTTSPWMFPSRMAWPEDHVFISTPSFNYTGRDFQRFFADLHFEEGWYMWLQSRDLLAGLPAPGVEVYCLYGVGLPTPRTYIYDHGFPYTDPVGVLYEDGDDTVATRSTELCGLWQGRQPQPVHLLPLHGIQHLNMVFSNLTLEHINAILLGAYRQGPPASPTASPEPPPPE
How it was run: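 Activity was expressed as percentage conversion of radiolabelled cholesterol to cholesteryl ester, normalised to native ApoA-I as 100%. LCAT purified from human plasma was added to peptide-preincubated EPC or POPC/cholesterol (20:1) small unilamellar vesicles at pH 7.4. Specific activity is the peptide concentration reaching the conversion plateau at a fixed timepoint.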

[3] = percent helicity, peptide-micelle complexes, Ri=100, 37° C.
[4] = LCAT activation as compared with native human ApoA-I (= 100%), equivalent masses

Molecule | He (%) TFE ([1]; percent helicity) [%] | He (%) free ([1]; percent helicity) [%] | He (%) mics [1, 3] [%] | ACTIVITY (%) LCAT [2, 4] [%] | He (%) SUVs ([1]; percent helicity) [%] | ACTIVITY (%) LCAT ([2]; LCAT activation as compared with native human ApoA-I (= 100%), equivalent masses, listed as 18AM4) | He (%) mics [1] [%] | ACTIVITY (%) LCAT [2] [%]
CC(C)C[C@H](NC(=O)[C@H](C)NC(=O)[C@H](CCC(=O)O)NC(=O)[C@H](CC(C)C)NC(=O)C(C)(C)NC(=O)[C@H](CCC(=O)O)NC(=O)[C@H](CC(N)=O)NC(=O)[C@H](CC(C)C)NC(=O)[C@H](CC(C)C)NC(=O)[C@H](CCC(=O)O)NC(=O)[C@H](CCCNC(=N)N)NC(=O)[C@H](Cc1ccccc1)NC(=O)[C@H](Cc1ccccc1)NC(=O)[C@H](CC(=O)O)NC(=O)[C@H](CC(C)C)NC(=O)[C@@H](NC(=O)[C@@H]1CCCN1)C(C)C)C(=O)N[C@@H](CCCCN)C(=O)N[C@@H](CCC(N)=O)C(=O)N[C@@H](CCCCN)C(=O)N[C@@H](CC(C)C)C(=O)N[C@@H](CCCCN)C(=O)O [peptide 25, PVLDFFRELLNEXLEALKQKLK] (H-PVLDFFRELLNE[Aib]LEALKQKLK-OH) | 93 | 46 | 82 | 51 |  |  |  | 
PAADAFREAANEAAEAAKQKAK [compound 105] | 65 | 29 | 28 | 1 | 32 |  |  | 
PVLELFENWLERLLDALQKKLK [compound 162] |  | 68 | 83 | 27 | 81 |  |  | 
EWLEAFYKKVLEKLKELF [peptide 246, reference compound] |  | 18 | 44 | 4 | 47 | less than 4% |  | 
CC(C)C[C@H](NC(=O)[C@H](C)NC(=O)[C@H](CCC(=O)O)NC(=O)[C@H](CC(C)C)NC(=O)[C@H](CC(C)C)NC(=O)[C@H](CCC(=O)O)NC(=O)[C@H](CC(N)=O)NC(=O)[C@H](CC(C)C)NC(=O)[C@H](CC(C)C)NC(=O)[C@H](CCC(=O)O)NC(=O)[C@H](CCCNC(=N)N)NC(=O)[C@H](Cc1ccccc1)NC(=O)[C@H](CC(C)C)NC(=O)[C@H](CC(=O)O)NC(=O)[C@H](CC(C)C)NC(=O)[C@@H](NC(=O)[C@@H]1CCCN1)C(C)C)C(=O)N[C@@H](CCCN)C(=O)N[C@@H](CCC(N)=O)C(=O)N[C@@H](CCCN)C(=O)N[C@@H](CC(C)C)C(=O)N[C@@H](CCCN)C(=O)O [peptide 14, PVLDLFRELLNELLEALOQOLO] |  | 70 | 96 | 61 | 80 |  |  | 
CC(C)C[C@H](NC(=O)[C@H](C)NC(=O)[C@H](CCC(=O)O)NC(=O)[C@H](CC(C)C)NC(=O)C(C)(C)NC(=O)[C@H](CCC(=O)O)NC(=O)[C@H](Cc1ccc(O)cc1)NC(=O)[C@H](CC(C)C)NC(=O)[C@H](CC(C)C)NC(=O)[C@H](CCC(=O)O)NC(=O)[C@H](CCCNC(=N)N)NC(=O)[C@H](Cc1ccccc1)NC(=O)[C@H](CCC(=O)O)NC(=O)[C@H](CC(=O)O)NC(=O)[C@H](CC(C)C)NC(=O)[C@@H](NC(=O)[C@@H]1CCCN1)C(C)C)C(=O)N[C@@H](CCCCN)C(=O)N[C@@H](CCC(N)=O)C(=O)N[C@@H](CCCCN)C(=O)N[C@@H](CC(C)C)C(=O)N[C@@H](CCCCN)C(=O)O [compound 70, PVLDEFRELLYEXLEALKQKLK] (H-PVLDEFRELLYE[Aib]LEALKQKLK-OH) | 66 | 27 | 78 | 12 | 33 |  |  | 
PVLELFENLLERGLDALQKKLK [peptide 154] | 80 | 13 | 76 | 39 | 25 |  |  | 
PVLELFENLLERLGDALQKKLK [peptide 148] | 80 | 10 | 76 | 75 | 23 |  |  | 
CC(C)C[C@@H](NC(=O)[C@@H](C)NC(=O)[C@@H](CCC(=O)O)NC(=O)[C@@H](CC(C)C)NC(=O)C(C)(C)NC(=O)[C@@H](CCC(=O)O)NC(=O)[C@@H](CC(N)=O)NC(=O)[C@@H](CC(C)C)NC(=O)[C@@H](CCCCN)NC(=O)[C@@H](CCC(=O)O)NC(=O)[C@@H](CCCNC(=N)N)NC(=O)[C@@H](Cc1ccccc1)NC(=O)[C@@H](CCC(=O)O)NC(=O)[C@@H](CC(=O)O)NC(=O)[C@@H](CC(C)C)NC(=O)[C@H](NC(=O)[C@H]1CCCN1)C(C)C)C(=O)N[C@H](CCCCN)C(=O)N[C@H](CCC(N)=O)C(=O)N[C@H](CCCCN)C(=O)N[C@H](CC(C)C)C(=O)N[C@H](CCCCN)C(=O)O [compound 44, pvldefreklneXlealkqklk] (H-[dP][dV][dL][dD][dE][dF][dR][dE][dK][dL][dN][dE][Aib][dL][dE][dA][dL][dK][dQ][dK][dL][dK]-OH) |  | 20 | 86 | 25 |  |  |  | 
PVLELFENLLERLLDAWQKKLK [compound 164] | 61 | 37 | 66 | 24 | 51 |  |  | 
Ac-PVLDLFRELWEELKQKLK-NH2 [compound 199] | 79 | 35 | 77 | 76 | 80 |  |  | 
CC(C)C[C@H](NC(=O)[C@H](C)NC(=O)[C@H](CCC(=O)O)NC(=O)[C@H](CC(C)C)NC(=O)[C@H](CC(C)C)NC(=O)[C@H](CCC(=O)O)NC(=O)[C@H](CC(N)=O)NC(=O)[C@H](CC(C)C)NC(=O)[C@H](CC(C)C)NC(=O)[C@H](CCC(=O)O)NC(=O)[C@H](CCCNC(=N)N)NC(=O)[C@H](Cc1ccccc1)NC(=O)[C@H](Cc1cccc2ccccc12)NC(=O)[C@H](CC(=O)O)NC(=O)[C@H](CC(C)C)NC(=O)[C@@H](NC(=O)[C@@H]1CCCN1)C(C)C)C(=O)N[C@@H](CCCCN)C(=O)N[C@@H](CCC(N)=O)C(=O)N[C@@H](CCCCN)C(=O)N[C@@H](CC(C)C)C(=O)N[C@@H](CCCCN)C(=O)O [compound 34, PVLDZFRELLNELLEALKQKLK] (H-PVLD[1Nal]FRELLNELLEALKQKLK-OH) | 62 | 58 | 67 | 32 | 68 |  |  | 
CC(C)C[C@H](NC(=O)[C@H](C)NC(=O)[C@H](CCC(=O)O)NC(=O)[C@H](CC(C)C)NC(=O)[C@H](CC(C)C)NC(=O)[C@H](CCC(=O)O)NC(=O)[C@H](CC(N)=O)NC(=O)[C@H](CC(C)C)NC(=O)[C@H](CC(C)C)NC(=O)[C@H](CCC(=O)O)NC(=O)[C@H](CCCNC(=N)N)NC(=O)[C@H](Cc1ccccc1)NC(=O)[C@H](CC(C)C)NC(=O)[C@H](CC(=O)O)NC(=O)[C@H](CC(C)C)NC(=O)[C@@H](NC(=O)[C@@H]1CCCN1S(=O)(=O)c1cccc2c(N(C)C)cccc12)C(C)C)C(=O)N[C@@H](CCCCN)C(=O)N[C@@H](CCC(N)=O)C(=O)N[C@@H](CCCCN)C(=O)N[C@@H](CC(C)C)C(=O)N[C@@H](CCCCN)C(=O)O [compound 30] | 90 | 85 |  |  | 98 |  | 90 | 38
Ac-PVLDLFRELLEEWKQKLK-NH2 [compound 215] | 68 | 28 | 63 | 38 | 53 |  |  | 
CC(C)C[C@H](NC(=O)[C@H](CCCCN)NC(=O)[C@H](CCC(N)=O)NC(=O)[C@H](CCCCN)NC(=O)[C@H](Cc1c[nH]c2ccccc12)NC(=O)[C@H](C)NC(=O)[C@H](CCC(=O)O)NC(=O)[C@H](CC(C)C)NC(=O)C(C)(C)NC(=O)[C@H](CCC(=O)O)NC(=O)[C@H](CC(N)=O)NC(=O)[C@H](CC(C)C)NC(=O)[C@H](CC(C)C)NC(=O)[C@H](CCC(=O)O)NC(=O)[C@H](CCCNC(=N)N)NC(=O)[C@H](Cc1ccccc1)NC(=O)[C@H](CC(C)C)NC(=O)[C@H](CC(=O)O)NC(=O)[C@H](CC(C)C)NC(=O)[C@@H](NC(=O)[C@@H]1CCCN1)C(C)C)C(=O)N[C@@H](CCCCN)C(=O)O [compound 38, PVLDLFRELLNEXLEAWKQKLK] (H-PVLDLFRELLNE[Aib]LEAWKQKLK-OH) | 49 | 25 | 49 | 29 | 21 |  |  | 
